Drawing on patent publication US11958846B2, “Urea compounds and compositions as SMARCA2/BRM ATPase inhibitors” (Novartis AG, priority 2018, dated 2024), this text covers IC50 for 7 compounds.

Some results are limits rather than exact numbers.

Experiment [1] addresses Brm ATPase-SnAC (636-1331) (Homo sapiens, UniProt P51531). Kind of experiment: BRM ATPase Inhibition Assay (ADP-Glo). The following applies: 5 nM BRM ATPase-SnAC, 85 μM ATP, 2 nM pCMV-dR8.91 plasmid, 60 min RT. In kind it is biochemical. The method, then:
BRM ATPase Inhibition Assay
(§1) Compound inhibition of ATPase activity of Brm ATPase-SnAC (636-1331) was measured by using the ADP-Glo assay kit from Promega (V6930). 120 nL of compound in 100% DMSO were transferred to a white 384 well microtiter assay plate using an ATS Acoustic Transfer System from EDC Biosystems. All subsequent reagent additions were performed using a MultiFlo FX Multi-Mode Dispenser. Assay buffer was 20 mM HEPES pH 7.5, 1 mM MgCl2, 20 mM KCl, 1 mM DTT, 0.01% BSA, 0.005% Tween 20. 4 μL of 7.5 nM Brm ATPase-SnAC in assay buffer was added to the assay plate and incubated at RT for 5 min with compound. 2 μL of 255 μM ATP and 6 nM pCMV-dR8.91 plasmid in assay buffer was added to assay plate to initiate the reaction. The final concentrations of reagents were 5 nM BRM ATPase-SnAC, 85 μM ATP, and 2 nM pCMV-dR8.91 plasmid. The ATPase reaction was incubated at RT for 60 min. 3 μL of ADP-Glo reagent was added to stop the reaction and was incubated for 30 min at RT. 3 μL of Kinase detection reagent was added to the assay plate which was incubated for 90 min at RT. Plates were read with a 2103 Multilabel Envision reader using ultrasensitive luminescence detection. IC50 values were determined from the average of duplicate data points by non-linear regression analysis of percent inhibition values plotted versus compound concentration.
(§2) pCMV-dR8.91 Plasmid Used for BRM/BRG1 ATPase Inhibition Assays:
(§3) The plasmid template pCMV-dR8.91 (see sequence below) is propagated using One Shot Stbl3 Chemically Competent E. coli (Catalog Number C73C7303, Invitrogen/Thermo Fisher Scientific) following the transformation protocol provided with the reagent. Transformed bacterial colonies are then selected on LB agar plates containing ampicillin/carbenicllin antibiotic selection medium (Catalog Number L1010, Teknova). Bacterial colonies are grown in LB liquid broth (Catalog number 10855001, Invitrogen) containing ampicillin at 100 micrograms/mL and plasmid DNA isolated according to required scale according to the manufacturers protocol provided with the Qiagen Plasmid Isolation Kits (Maxi prep, Product Id Number 10063).

Experiment [2] concerns the target Brg1 ATPase-SnAC (658-1361) (Homo sapiens (Human), UniProt P51532). Kind of experiment: BRG1 ATPase Inhibition Assay (ADP-Glo). Format: biochemical. The following applies: 5 nM Brg1 ATPase-SnAC, 65 μM ATP, 2 nM pCMV-dR8.91 plasmid, 60 min RT. On the procedure:
BRG1 ATPase Inhibition Assay
BRG1 ATPase Inhibition Activity
as §1, with “Brg1” for “Brm”, “(658-1361)” for “(636-1331)”, “195” for “255”, “Brg1” for “BRM”, “65” for “85”
as §2, §3

Chain of Brm ATPase-SnAC (636-1331) (P51531 whole entry, looked up): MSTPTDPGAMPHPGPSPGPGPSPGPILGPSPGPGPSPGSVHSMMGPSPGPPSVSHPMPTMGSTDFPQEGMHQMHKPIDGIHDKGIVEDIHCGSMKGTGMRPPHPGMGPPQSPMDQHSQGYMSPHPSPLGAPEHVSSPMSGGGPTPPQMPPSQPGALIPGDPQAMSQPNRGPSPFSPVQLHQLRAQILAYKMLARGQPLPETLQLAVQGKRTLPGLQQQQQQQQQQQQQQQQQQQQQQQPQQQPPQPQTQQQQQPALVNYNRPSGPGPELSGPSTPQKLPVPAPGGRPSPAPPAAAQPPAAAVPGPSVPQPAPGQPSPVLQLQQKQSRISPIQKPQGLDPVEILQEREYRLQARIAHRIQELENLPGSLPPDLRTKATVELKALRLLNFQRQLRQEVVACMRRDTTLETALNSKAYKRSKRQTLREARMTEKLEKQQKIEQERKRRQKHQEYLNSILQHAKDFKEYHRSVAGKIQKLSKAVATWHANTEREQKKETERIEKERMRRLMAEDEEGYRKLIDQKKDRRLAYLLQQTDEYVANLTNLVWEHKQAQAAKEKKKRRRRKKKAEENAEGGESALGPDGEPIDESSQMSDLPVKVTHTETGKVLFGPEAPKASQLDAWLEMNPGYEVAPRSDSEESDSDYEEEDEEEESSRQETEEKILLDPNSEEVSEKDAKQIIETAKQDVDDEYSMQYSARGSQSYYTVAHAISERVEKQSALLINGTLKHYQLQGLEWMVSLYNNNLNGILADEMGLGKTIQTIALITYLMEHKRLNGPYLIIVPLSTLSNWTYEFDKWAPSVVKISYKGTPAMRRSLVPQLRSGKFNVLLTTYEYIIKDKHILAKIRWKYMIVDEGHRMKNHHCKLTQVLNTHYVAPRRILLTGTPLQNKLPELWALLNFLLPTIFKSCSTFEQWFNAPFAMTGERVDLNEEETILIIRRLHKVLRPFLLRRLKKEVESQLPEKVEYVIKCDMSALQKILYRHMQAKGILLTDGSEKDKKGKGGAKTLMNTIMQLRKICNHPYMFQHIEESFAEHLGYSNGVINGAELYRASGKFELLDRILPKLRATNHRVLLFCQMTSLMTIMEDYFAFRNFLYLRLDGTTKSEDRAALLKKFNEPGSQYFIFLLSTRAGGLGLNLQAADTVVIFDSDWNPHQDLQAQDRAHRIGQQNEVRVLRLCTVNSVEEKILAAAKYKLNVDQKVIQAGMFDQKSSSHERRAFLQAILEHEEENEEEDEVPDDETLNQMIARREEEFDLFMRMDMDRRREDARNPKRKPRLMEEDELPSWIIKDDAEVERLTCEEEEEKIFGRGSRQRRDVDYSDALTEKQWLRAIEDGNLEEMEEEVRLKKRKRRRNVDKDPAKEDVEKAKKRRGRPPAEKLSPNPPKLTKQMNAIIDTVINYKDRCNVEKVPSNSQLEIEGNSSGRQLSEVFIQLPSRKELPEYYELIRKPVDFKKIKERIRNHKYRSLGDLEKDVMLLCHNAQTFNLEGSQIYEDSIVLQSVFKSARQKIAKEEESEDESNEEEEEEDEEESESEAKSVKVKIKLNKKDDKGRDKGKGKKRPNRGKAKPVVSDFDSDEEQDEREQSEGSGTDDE
Chain of Brg1 ATPase-SnAC (658-1361) (P51532 other isoform, or with tags, fused parts or gaps): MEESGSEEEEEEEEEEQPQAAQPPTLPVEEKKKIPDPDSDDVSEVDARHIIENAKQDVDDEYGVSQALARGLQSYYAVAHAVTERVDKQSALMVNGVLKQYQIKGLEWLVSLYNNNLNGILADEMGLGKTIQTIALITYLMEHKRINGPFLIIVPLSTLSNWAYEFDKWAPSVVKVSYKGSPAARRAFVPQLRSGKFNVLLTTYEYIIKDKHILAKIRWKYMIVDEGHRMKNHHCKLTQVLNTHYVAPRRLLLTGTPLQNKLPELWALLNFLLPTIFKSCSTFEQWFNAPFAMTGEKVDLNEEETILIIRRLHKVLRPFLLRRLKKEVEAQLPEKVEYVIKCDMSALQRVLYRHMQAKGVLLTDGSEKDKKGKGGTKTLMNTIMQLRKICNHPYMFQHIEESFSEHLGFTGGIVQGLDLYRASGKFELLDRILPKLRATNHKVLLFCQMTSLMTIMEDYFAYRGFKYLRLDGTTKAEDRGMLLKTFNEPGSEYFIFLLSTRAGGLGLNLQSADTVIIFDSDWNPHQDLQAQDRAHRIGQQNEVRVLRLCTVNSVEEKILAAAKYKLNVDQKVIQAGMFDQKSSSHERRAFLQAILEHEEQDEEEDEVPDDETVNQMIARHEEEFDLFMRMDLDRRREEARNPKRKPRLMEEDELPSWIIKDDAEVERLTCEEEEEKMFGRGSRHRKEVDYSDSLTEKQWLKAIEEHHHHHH

For the compound `O=C(Nc1ccnc(Cl)c1)Nc1cc(C(F)F)ns1` [Example 1, 1-(2-chloropyridin-4-yl)-3-(3-(difluoromethyl)isothiazol-5-yl)urea], the figures for the IC50 in experiment [1] and in experiment [2] were 5 nM and 6 nM, respectively.

With `Cc1cc(NC(=O)Nc2ccnc(Cl)c2)sn1` [Example 2, 1-(2-chloropyridin-4-yl)-3-(3-methylisothiazol-5-yl)urea], the values for the IC50 in experiment [1] and in experiment [2] were 33 nM and 30 nM, respectively.

As to `Nc1cnc(Cl)cc1NC(=O)Nc1cc(C(F)F)ns1` [Example 4, 1-(5-amino-2-chloropyridin-4-yl)-3-(3-(difluoromethyl)isothiazol-5-yl)urea], the IC50 in experiment [1] and in experiment [2] was < 5 nM throughout.

On to `O=C(Nc1cc(C(F)F)ns1)Nc1cc(Cl)ncc1CO` [Example 5, 1-(2-chloro-5-(hydroxymethyl)pyridin-4-yl)-3-(3-(difluoromethyl)isothiazol-5-yl)urea], for which the IC50 in experiment [1] and in experiment [2] was < 5 nM throughout.

With `Nc1cnc(F)cc1NC(=O)Nc1cc(C(F)F)ns1` [Example 6, 1-(5-amino-2-fluoropyridin-4-yl)-3-(3-(difluoromethyl)isothiazol-5-yl)urea], the half-maximal inhibitory concentration (IC50) in experiment [1] and in experiment [2] was < 5 nM in each case.

Consider `O=C(Nc1cc(C(F)F)ns1)Nc1cc(F)ncc1CO` [Example 7, 1-(3-(difluoromethyl)isothiazol-5-yl)-3-(2-fluoro-5-(hydroxymethyl)pyridin-4-yl)urea], for which the IC50 in experiment [1] and in experiment [2] was < 5 nM each time.

For `O=C(Nc1cc(C(F)F)ns1)Nc1ccnc(F)c1CO` [Example 8, 1-(3-(difluoromethyl)isothiazol-5-yl)-3-(2-fluoro-3-(hydroxymethyl)pyridin-4-yl)urea], the IC50 was 90 nM in experiment [1] and 19 nM in experiment [2].
